Like-named read-outs stand apart in the source and are kept apart here.
Assays:
[1] = target: Human α2δ-1 subunit of Cav2.2 calcium channel (Homo sapiens (Human), UniProt P54289); test: Binding Assay to Human α2δ-1 Subunit of Cav2.2 Calcium Channel; conditions: human α2δ-1 enriched membranes, 15 nM [3H]-Gabapentin, read-out: Ki(nM) alpha2delta Hum
Description: Binding Assay to Human α2δ-1 Subunit of Cav2.2 Calcium Channel.
(§1) NSB (non specific binding) was measured by adding 10 μM pregabalin. The binding of the test compound was measured in five different concentrations. After 60 min incubation at 27° C., binding reaction was terminated by filtering through Multiscreen GF/C (Millipore) presoaked in 0.5% polyethyleneimine in Vacuum Manifold Station, followed by 3 washes with ice-cold filtration buffer containing 50 mM Tris-HCl, pH 7.4.
(§2) Filter plates were dried at 60° C. for 1 hour and 30 μl of scintillation cocktail were added to each well before radioactivity reading.

[2] = target: Human norepinephrine transporter (NET) (Homo sapiens (Human), UniProt P23975); test: Binding Assay to Human Norepinephrine Transporter (NET); conditions: Table 2, dual compounds; human NET enriched membranes, 5 nM [3H]-Nisoxetin; read-out: Ki(nM) NET Hum
Description: Binding Assay to Human Norepinephrine Transporter (NET).
Human norepinephrine transporter (NET) enriched membranes (5 μg) were incubated with 5 nM of radiolabeled [3H]-Nisoxetin in assay buffer containing 50 mM Tris-HCl, 120 mM NaCl, 5 mM KCl, pH 7.4.
as §1, with “desipramine.” for “pregabalin.”, “4°” for “27°”, “Tris-HCl, 0.9% NaCl,” for “Tris-HCl,”
as §2

Human norepinephrine transporter (NET), sequence (P23975 whole entry): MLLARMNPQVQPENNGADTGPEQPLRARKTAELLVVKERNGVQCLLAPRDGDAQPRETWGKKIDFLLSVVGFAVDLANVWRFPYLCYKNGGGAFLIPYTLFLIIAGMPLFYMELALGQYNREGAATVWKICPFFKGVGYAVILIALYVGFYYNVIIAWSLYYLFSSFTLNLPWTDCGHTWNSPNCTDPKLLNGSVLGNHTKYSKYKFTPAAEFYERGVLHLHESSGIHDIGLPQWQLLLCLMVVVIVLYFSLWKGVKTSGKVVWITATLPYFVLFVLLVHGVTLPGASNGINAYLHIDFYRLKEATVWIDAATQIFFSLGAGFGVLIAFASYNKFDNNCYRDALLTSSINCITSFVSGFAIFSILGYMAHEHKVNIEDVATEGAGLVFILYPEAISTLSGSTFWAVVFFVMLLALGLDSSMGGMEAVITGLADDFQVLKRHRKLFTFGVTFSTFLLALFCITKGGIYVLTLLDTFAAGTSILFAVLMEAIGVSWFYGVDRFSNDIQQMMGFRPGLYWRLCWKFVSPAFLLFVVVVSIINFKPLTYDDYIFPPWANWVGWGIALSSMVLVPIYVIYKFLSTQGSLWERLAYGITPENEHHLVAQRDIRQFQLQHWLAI
Human α2δ-1 subunit of Cav2.2 calcium channel, sequence (P54289 25-1103): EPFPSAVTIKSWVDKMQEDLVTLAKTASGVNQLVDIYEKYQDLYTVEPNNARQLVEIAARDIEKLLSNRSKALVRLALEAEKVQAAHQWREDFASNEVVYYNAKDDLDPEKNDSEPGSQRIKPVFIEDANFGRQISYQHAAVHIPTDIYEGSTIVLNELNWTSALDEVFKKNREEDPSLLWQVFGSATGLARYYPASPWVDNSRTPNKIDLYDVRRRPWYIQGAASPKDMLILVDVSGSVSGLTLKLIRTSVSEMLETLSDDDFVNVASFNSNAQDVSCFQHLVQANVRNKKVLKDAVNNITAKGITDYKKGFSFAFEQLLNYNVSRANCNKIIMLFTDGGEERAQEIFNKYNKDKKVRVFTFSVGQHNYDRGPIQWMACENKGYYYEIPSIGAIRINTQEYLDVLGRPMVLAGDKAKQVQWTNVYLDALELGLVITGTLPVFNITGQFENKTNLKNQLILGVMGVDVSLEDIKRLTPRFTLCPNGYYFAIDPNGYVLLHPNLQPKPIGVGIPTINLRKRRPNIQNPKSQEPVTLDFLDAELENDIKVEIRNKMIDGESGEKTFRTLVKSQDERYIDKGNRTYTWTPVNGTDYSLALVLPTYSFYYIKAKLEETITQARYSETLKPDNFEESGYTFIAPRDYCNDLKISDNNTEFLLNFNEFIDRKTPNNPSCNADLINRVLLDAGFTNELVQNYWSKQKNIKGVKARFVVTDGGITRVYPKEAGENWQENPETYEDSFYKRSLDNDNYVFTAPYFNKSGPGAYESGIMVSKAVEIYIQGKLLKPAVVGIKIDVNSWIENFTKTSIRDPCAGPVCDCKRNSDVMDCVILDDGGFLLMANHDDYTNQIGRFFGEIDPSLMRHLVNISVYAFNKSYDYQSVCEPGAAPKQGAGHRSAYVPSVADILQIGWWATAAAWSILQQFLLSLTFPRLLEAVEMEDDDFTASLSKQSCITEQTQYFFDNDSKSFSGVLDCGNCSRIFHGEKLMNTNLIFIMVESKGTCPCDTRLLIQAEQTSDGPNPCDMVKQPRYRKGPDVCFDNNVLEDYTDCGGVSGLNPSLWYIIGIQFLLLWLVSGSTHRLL

| Ki ([1]; Table 1) | Ki ([1]; Table 2, dual compounds) | Ki [2] | Compound |
| --- | --- | --- | --- |
| 100 to 500 nM | 100 to 500 nM | < 100 nM | CNCC[C@H](Oc1ccc(CN2CCN(C)c3ncccc3C2=O)cc1)c1cccc(F)c1 [Example 151, (S)-4-(4-(1-(3-fluorophenyl)-3-(methylamjno)propoxy)benzyl)-1-methyl-1,2,3,4-tetrahydro-5H-pyrido[2,3-e][1,4]diazepin-5-one] |
| < 100 nM | < 100 nM | < 100 nM | CNCC[C@H](Oc1ccc(CN2CCN(C)c3cnc(OC)cc3C2=O)c(F)c1)c1ccccc1 [Example 140, (S)-4-(2-fluoro-4-(3-(methylamino)-1-phenylpropoxy)benzyl)-7-methoxy-1-methyl-1,2,3,4-tetrahydro-5H-pyrido[3,4-e][1,4]diazepin-5-one] |
| 500 to 3000 nM | 500 to 3000 nM | < 100 nM | CNCC[C@@H](Oc1cccc(N2CCN(C(C)C)CCC2=O)c1)c1ccsc1 [Example 76, (R)-1-isopropyl-4-(3-(3-(methylamino)-1-(thiophen-3-yl)propoxy)phenyl)-1,4-diazepan-5-one] |
| 500 to 3000 nM | 500 to 3000 nM | 500 to 1000 nM | CNCCC(OCc1cccc(N2CCCN(C)CC2)c1)c1cccs1 (stereo not shown) [Example 10, N-methyl-3-((3-(4-methyl-1,4-diazepan-1-yl)benzyl)oxy)-3-(thiophen-2-yl)propan-1-amine] |
| < 100 nM | < 100 nM | < 100 nM | CNCC[C@H](Oc1ccc(CN2CCN(C)c3ncccc3C2=O)c(Cl)c1)c1ccccc1 [Example 141, (S)-(2-chloro-4-(3-(methylamino)-1-phenylpropoxy)benzyl)-1-methyl-1,2,3,4-telrahydro-5H-pyrido[2,3-e][1,4]diazepin-5-one] |
| 100 to 500 nM | 100 to 500 nM | < 100 nM | CNCCC(Oc1ccc(CN2CCN(C)c3ncccc3C2=O)cc1)c1cccc(F)c1 (stereo not shown) [Example 117, 4-(4-(1-(3-Fluorophenyl)-3-(methylamino)propoxy)benzyl)-1-methyl-1,2,3,4-tetrahydro-5H-pyrido[2,3-e][1,4]diazepin-5-one] |
| 100 to 500 nM | 100 to 500 nM | 500 to 1000 nM | CNCCC(Oc1cccc(CN2CCN(C)c3ccccc3C2)c1)c1cccs1 (stereo not shown) [Example 1, N-methyl-3-(3-((1-methyl-1,2,3,5-tetrahydro-4H-benzo[e][1,4]diazepin-4-yl)methyl)phenoxy)-3-(thiophen-2-yl)propan-1-amine] |
| 100 to 500 nM | 100 to 500 nM | 500 to 1000 nM | CNCC[C@H](Oc1cccc(N2CCN(C)c3nc(C(F)(F)F)ccc3C2=O)c1)c1cccs1 [Example 81, (S)-1-methyl-4-(3-(3-(methylamino)-1-(thiophen-2-yl)propoxy)phenyl)-8-(trifiuoromethyl)-1.2.3,4-tetrahydro-5H-pyrido[2.3-e][1,4]diazepin-5-one] |
| 500 to 3000 nM | 500 to 3000 nM | 500 to 1000 nM | CNCCC(OCc1cccc(N2CCN(C)c3ccccc3C2)c1)c1ccccc1 (stereo not shown) [Example 7, N-methyl-3-((3-(1-methyl-1,2,3,5-tetrahydro-4H-benzo[e][1,4]diazepin-4-yl)benzyl)oxy)-3-phenylpropan-1-amine] |
| < 100 nM | < 100 nM | < 100 nM | CNCC[C@H](Oc1ccc(CN2CCN(C)c3nc(N)ccc3C2=O)c(Cl)c1)c1ccccc1 [Example 138, (S)-8-amino-4-(2-chloro-4-(3-(methylamino)-1-phenylpropoxy)benzyl)-1-methyl-1,2,3,4-tetrahydro-5H-pyrido[2,3-e][1,4]diazepin-5-one] |
| 100 to 500 nM | 100 to 500 nM | 100 to 500 nM | CNCC[C@H](Oc1ccc(CN2CCN(C)c3ncccc3C2=O)c(C)c1)c1ccccc1 [Example 114, (S)-1-methyl-4-(2-methyl-4-(3-(methylamino)-1-phenylpropoxy)benzyl)-1,2,3,4-tetrahydro-5H-pyrido[2,3-e][1,4]diazepin-5-one] |
| < 100 nM | < 100 nM | < 100 nM | CNCC[C@H](Oc1ccc(CN2CCN(C)c3nc(N)ccc3C2=O)c(F)c1)c1cccc(F)c1 [Example 153, (S)-8-amino-4-(2-fluoro-4-(1-(3-fluorophenyl)-3-(methylamino)propoxy)benzyl)-1-methyl-1,2,3,4-tetrahydro-5H-pyrido[2,3-e][1,4]diazepin-5-one] |
| 100 to 500 nM | 100 to 500 nM | < 100 nM | CNCC[C@H](Oc1ccc(CN2CCCn3nc(OC)cc3C2=O)c(F)c1)c1ccccc1 [Example 144, (S)-5-(2-fluoro-4-(3-(methylamino)-1-phenylpropoxy)benzyl)-2-methoxy-5,6,7,8-tetrahydro-4H-pyrazolo[1,5-a][1,4]diazepin-4-one] |
| < 100 nM | < 100 nM | < 100 nM | CNCC[C@H](Oc1ccc(CN2CCN(C)c3ncccc3C2=O)c(F)c1)c1cccc(F)c1 [Example 136, (S)-4-(2-fluoro-4-(1-(3-fluorophenyl)-3-(methylamino)propoxy)benzyl)-1-methyl-1,2,3,4-tetrahydro-5H-pyrido[2,3-e][1,4]diazepin-5-one] |
| < 100 nM |  |  | CNCC[C@H](Oc1ccc(CN2CCCn3nc(C)cc3C2=O)c(C)c1)c1cccs1 [Example 124, (S)-2-methyl-5-(2-methyl-4-(3-(methylamino)-1-(thiophen-2-yl)propoxy)benzyl)-5,6,7,8-tetrahydro-4H-pyrazolo[1,5-a][1,4]diazepin-4-one] |
| 500 to 3000 nM |  |  | CN1CCN(c2cccc(COC(CCNCCF)c3ccccc3)c2)C(=O)c2ccccc21 (stereo not shown) [Example 44, 4-(3-((3-((2-Fluoroethyl)amino)-1-phenylpropoxy)methyl)phenyl)-1-methyl-1,2,3,4-tetrahydro-5H-benzo[e][1,4]diazepin-5-one] |
| 100 to 500 nM |  |  | CNCCC(Oc1ccc(CN2CCN(C)CCC2=O)cc1)c1cccs1 (stereo not shown) [Example 101, 1-Methyl-4-(4-(3-(methylamino)-1-(thiophen-2-yl)propoxy)benzyl)-1,4-diazepan-5-one] |
| < 100 nM |  |  | CNCC[C@H](Oc1ccc(CN2CCN(C)c3ncccc3C2=O)c(C(F)(F)F)c1)c1cccs1 [Example 127, (S)-1-methyl-4-(4-(3-(methylamino)-1-(thiophen-2-yl)propoxy)-2-(trifluoromethyl)benzyl)-1,2,3,4-tetrahydro-5H-pyrido[2,3-e][1,4]diazepin-5-one] |
| > 3000 nM |  |  | CNCC[C@H](Oc1ccc(CN2CCN(C)c3c(ccnc3OC)C2=O)c(F)c1)c1ccccc1 [Example 146, (S)-4-(2-fluoro-4-(3-(methylamino)-1-phenylpropoxy)benzyl)-9-methoxy-1-methyl-1,2,3,4-tetrahydro-5H-pyrido[3,4-e][1,4]diazepin-5-one] |
| 100 to 500 nM |  |  | CNCC[C@H](Oc1ccc(CN2CCN(C)c3ncccc3C2=O)c(C2CC2)c1)c1ccccc1 [Example 133, (S)-4-(2-cyclopropyl-4-(3-(methylamino)-1-phenylpropoxy)benzyl)-1-methyl-1,2,3,4-tetrahydro-5H-pyrido[2,3-e][1,4]diazepin-5-one] |
| 500 to 3000 nM |  |  | CNCC[C@@H](OCc1cccc(N2CCCN(C)CC2)c1)c1ccccc1 [Example 13, (R)-N-methyl-3-((3-(4-methyl-1,4-diazepan-1-yl)benzyl)oxy)-3-phenylpropan-1-amine] |
| < 100 nM |  |  | CNCC[C@H](Oc1ccc(CN2CCN(C)c3ncccc3C2=O)c(C(F)(F)F)c1)c1ccccc1 [Example 130, (S)-1-methyl-4-(4-(3-(methylamino)-1-phenylpropoxy)-2-(trifluoromethyl)benzyl)-1,2,3,4-tetrahydro-5H-pyrido[2,3-e][1,4]diazepin-5-one] |
| 500 to 3000 nM |  |  | CNCC[C@@H](OCc1cccc(N2C[C@@H]3CCCN3c3ccccc3C2=O)c1)c1ccccc1 [Example 31, (S)-5-(3-(((R)-3-(methylamino)-1-phenylpropoxy)methyl)phenyl)-1.2,3,3a,4,5-hexahydro-6H-benzo[f]pyrrolo[1,2-a][1,4]diazepin-6-one] |
| 500 to 3000 nM |  |  | CCNCC(=O)N1CCCN(c2cccc(OC(CCNC)c3cccs3)c2)CC1 (stereo not shown) [Example 11, 2-(Ethylamino)-1-(4-(3-(3-(methylamino)-1-(thiophen-2-yl)propoxy)phenyl)-1,4-diazepan-1-yl)ethan-1-one] |
| > 3000 nM |  |  | CNCCC(Oc1cccc(N2CCCN(C)CC2=O)c1)c1cccs1 (stereo not shown) [Example 52, 4-Methyl-1-(3-(3-(methylamino)-1-(thiophen-2-yl)procoxy)phenyl)-1,4-diazepan-2-one] |
| 500 to 3000 nM |  |  | CCNC[C@@H]1CC(=O)N(c2cccc(O[C@@H](CCNC)c3cccs3)c2)CCN1C [Example 87, (S)-7-((ethylamino)methyl)-1-methyl-4-(3-((S)-3-(methylamino)-1-(thiophen-2-yl)propoxy)phenyl)-1,4-diazepan-5-one] |
| > 3000 nM |  |  | CNCCC(Oc1cccc(N2CCCCCC2=O)c1)c1cccs1 (stereo not shown) [Example 17, 1-(3-(3-(Methylamino)-1-(thiophen-2-yl)propoxy)phenyl)azepan-2-one] |

From US11401270B2, “Alcoxyamino derivatives for treating pain and pain related conditions” (ESTEVE PHARMACEUTICALS, S.A., priority 2017, dated 2022)
